Experimental data from patent US20120058133A1, “INHIBITION OF TRNA SYNTHETASES AND THERAPEUTIC APPLICATIONS THEREOF” (President and Fellows of Harvard College, priority 2009, published 2012).
“Also recorded” adds a separate entry of the source. Blank lines part the entries; values can stand above or below the molecule they belong to.

Legend:
[1] = system: translation in rabbit reticulocyte lysate; assay: In vitro translation in rabbit reticulocyte lysate (RRL); type: biochemical; settings: for translation of luciferase RNA in RRL: standard amino acid mix
Experimental: FIG. 23. HF and FF inhibit prolyl tRNA synthetase activity in vitro. […] Rabbit reticulocyte lysate (RRL) was incubated with luciferase mRNA and translation quantitated in a luminescence assay. A high concentration of mixed or individual amino acids (1 mM of each) was added to rescue translational inhibition. AA Mix 1: Asn, Arg, Val, Glu, Gly; AA Mix2: Lys, Ile, Tyr, Asp, Trp; Mix 3: His, Met, Leu, Ala, Thr; Mix 4: Ser, Phe, Pro, Gln. […] Note log scale of y axis.
Inhibitors (FIG. 22) and proline were assayed as described in FIG. 23A. Note log scale at Y axis. Error bars reflect standard deviation of triplicate determinations.
Short myc-tagged polypeptides of identical sequence (see Example 9, “Materials and Methods”) with the exception that NoPro lacks proline, while ProPro contains a proline dipeptide, were translated in RRL in the presence of indicated inhibitors. Translation was examined by anti-myc Western blot.
Note log scale of Y axis.
Translation in vitro was performed using rabbit reticulocyte lysates and luciferase mRNA as template. Translation was measured as arbitrary units of luciferase activity using a luminometer based luminescence assay. Log scale presentation of background-subtracted data is shown.

[2] = system: GCN2 phosphorylation / AAR pathway; assay: AAR pathway activation in MEFs (GCN2, eIF2a phosphorylation, CHOP); type: cell-based, mouse; settings: for reversal of GCN2 phosphorylation by cognate amino acid: 2 mM proline or 2 mM threonine; for GCN2 phosphorylation in fibroblasts: 2 hours, borrelidin 1 μM
Experimental: FIG. 24. Activation of the AAR in cells by HF/FF occurs through inhibition of proline utilization. FIG. 24A is a gel showing HF-induction of the AAR pathway is reversed by proline. MEFs were treated with the indicated concentration of HF or FF in the presence or absence of 2 mM Proline for 2 hours (left) or treated with 1 μM borrelidin in the presence or absence of 2 mM Threonine for 2 hours (right). Cells were lysed and assessed by anti-pGCN2 or anti-GCN2 Western blot. Data are representative of three separate experiments.
FIG. 24B is a gel showing HF induction of eIF2a phosphorylation and CHOP expression is GCN2 dependent. Wild Type or GCN2−/− MEFs were treated with 50 nM HF in the presence or absence of 2 mM proline. Cells were lysed at 2 hours post-HF addition (peIF2a) or 6 hours post-HF addition (CHOP) and analyzed for phosphoprotein or total protein levels by Western blot.

[3] = system: murine CD4+ CD25− T cells; assay: Th17 differentiation of activated CD4+ CD25− T cells (TGFβ plus IL-6; IL-17+ IFNγ− cells); type: cell-based, mouse; settings: for IL-17 production / Th17 differentiation: 0.2 mM L-tryptophanol; for reversal of Th17 inhibition by threonine: 6 nM borrelidin, 0.5 mM threonine
Experimental: (§1) Purified CD4^+ CD25^− T cells were activated in vitro as previously described (Djuretic et al., Nat. Immunol. 8:145, 2007) using 0.3 μg/ml hamster anti-mouse CD3 (clone 145-2C11) (ATCC—Manassas, Va.) and 0.5 μg/ml hamster anti-mouse CD28 (BD Pharmingen—San Jose, Calif.). Activated cell cultures were differentiated using the following combinations of cytokines and antibodies: iTreg-recombinant human TGFβ1 (3 ng/ml—R&D systems, Minneapolis, Minn.), Th17-TGFβ1 (3 ng/ml) plus recombinant mouse IL-6 (30 ng/ml—R&D systems). Th1 and Th2 differentiation was performed as previously described (Djuretic et al., Nat. Immunol. 8:145, 2007). Human IL-2 supernatant (National Cancer Institute) was used in culture at 0.01 U/ml and was added at 48 hours-post activation when T cells were split into tissue culture wells lacking CD3 and CD28 antibodies, with the exception of Th17 cultures that were maintained in the absence of exogenous IL-2. CD8^+ T cells were activated with 1 μg/ml anti-CD3 and 1 μg/ml anti-CD28 and were expanded in 0.1 U/ml IL-2 until day 6 post activation. CD43-depleted B cells were activated in vitro by culturing with 25 μg/ml LPS (Sigma—St. Louis, Mo.) for 3-4 days in the presence or absence of TGFβ. All reagents (see below) were added at the time of T cell activation and again at 48 hours post activation unless indicated otherwise. For some experiments, purified CD4^+ CD25^− T cells, CD8^+ T cells or B cells were labeled with 1 μM CFSE (Invitrogen) prior to activation in accordance with manufacturer's instructions. Human T cell activation was performed by plating purified monocytes in a 96-well flat bottom plate at a concentration of 2×10^4 cells per well in complete medium overnight. 10^5 purified human memory T cells were added to monocyte cultures in the presence of soluble anti-CD3/anti-CD28 beads (Dynabeads, Invitrogen). T cells were expanded in the presence HF or MAZ1310 for up to 6 days.
MAZ1310 (Kamberov, Ph.D. Dissertation, Harvard University, 2008) was generated by chemical derivatization of halofuginone and was used at equal concentrations as a negative control. HF and MAZ1310 were prepared as 100 mM stock solutions in DMSO and diluted to the indicated concentrations. SB-431542 (Inman et al., Mol. Pharmacol. 62:65, 2002) (Tocris bioscience—Ellisville, Mo.) was prepared as a 10 mM stock solution in DMSO and was used in culture at 10 μM. L-tryptophanol was prepared as a 20 mM stock solution in 0.1 M NaOH, pH 7.4 and was used at 0.2 mM. For amino acid starvation experiments, T cells were activated and differentiated as above in D-MEM medium without L-cysteine and L-methionine (Invitrogen—Carlsbad, Calif.), or D-MEM medium without L-leucine. Stocks containing 20 mM L-cysteine (Sigma—St. Louis, Mo.) plus 10 mM L-methionine (Sigma), or 400 mM L-leucine (Sigma) were prepared in ddH2O, pH 1.0 and were added to medium at the indicated concentrations.
(§2) For detection of intracellular cytokines in murine cells, cultured T or B cells were stimulated with 10 nM PMA (Sigma) and […] (Sigma) for 4-5 hours in the presence of 10 mM brefeldin A (Sigma). Stimulated cells were harvested, washed with PBS and fixed with PBS plus 4% paraformaldehyde at room temperature for 20 minutes. Cells were then washed with PBS, permeabilized with PBS supplemented with 1% BSA and 0.5% saponin (Sigma) at room temperature for 10 minutes before cytokine-specific antibodies were added and incubated with cells for an additional 20 minutes at room temperature.

[4] = Cell-based assays (not specified)
[5] = system: TGFβ signaling; assay: Lymphocyte responses to TGFβ (Smad phosphorylation and others); type: cell-based, mouse; settings: low dose HF; 10 μM SB-431542
Experimental: FIG. 8. […] FIG. 8A is a set of FACS analyses of CD4^+ CD25^− T cells activated in Th1 or Th2 polarizing conditions, either in the presence or absence of TGFβ. DMSO, 10 nM HF, 10 nM MAZ1310, or 10 μM SB-431542 added as indicated at the time of activation. Intracellular cytokine staining was performed on expanded T cells on day 5.
FIG. 8B is a set of FACS analyses of CD8^+ T cells activated in the presence or absence of TGFβ and cultured with DMSO, 10 nM HF, 10 nM MAZ1310, or 10 μM SB-431542. Expanded cells were restimulated on day 5 and intracellular staining was performed.
FIG. 8C is a set of FACS analyses of CFSE-labeled B cells activated by LPS stimulation in the presence or absence of TGFβ plus DMSO, 10 nM HF, 10 nM MAZ1310, or 10 μM SB-431542. Intracellular IL-6 production in B cells restimulated with PMA plus ionomycin, or cell-surface IgA expression was determined 4 days after activation.
FIG. 8D depicts western blot analyses of purified CD4^+ CD25^− T cells treated with DMSO, 40 nM MAZ1310, titrating concentrations of HF (2.5-40 nM) or 10 μM SB-431542 for 30 minutes in complete medium supplemented with 0.1% fetal calf serum. T cells were then activated in the presence or absence of 3 ng/ml TGFβ. Whole cell extracts were prepared after 1 hour of stimulation and western blot analyses were performed using the indicated antibodies. […]

[6] = system: murine CD4+ CD25− T cells, CD8+ T cells, B cells; assay: T and B cell activation, proliferation, cytokine production and Th1/Th2/iTreg differentiation; type: cell-based, mouse; settings: 3 ng/ml Borrelidin
Experimental: FIG. 2A, Left, is a graph showing dose response analyses performed on activated carboxyfluorescein succinimidyl ester (CFSE)-labeled CD4^+CD25^− T cells in the presence of DMSO, 40 nM MAZ1310, or increasing concentrations of halofuginone (HF) (1.25-40 nM). CFSE dilution and cell surface CD25 expression were determined 48 hours after activation. Intracellular cytokine production was determined on day 4 or 5 following restimulation with phorbol myristate acetate (PMA) and ionomycin. […] FIG. 2A, Right is a graph showing dose-response analyses of HF effects on CD8^+ T cell or B cell function. Cells were activated in the presence of DMSO, 40 nM MAZ1310, or increasing concentrations of HF (1.25-40 nM). CFSE dilution, cell surface CD25 expression, and intracellular cytokine production were determined as above 2-5 days after activation.
At approximately 10-fold higher concentrations (>20 nM), HF induced a general inhibition of T and B cell activation, proliferation, and effector function (FIG. 2A, 2B).
as §1
Cytokines secreted into media supernatant were measured using the mouse Th1/Th2 cytometric bead array (CBA—BD Pharmingen) in accordance with manufacturers instructions. Briefly, CD4+ CD25− T cells were activated in anti-CD3/anti-CD28-coated tissue culture wells (see above) and supernatants were collected at the indicated times.
as §2, with “temperature. […]” for “temperature.”

[7] = system: mouse and human fibroblasts; assay: Collagen protein production in mouse and human fibroblasts; type: cell-based; settings: data not shown

SMILES: O=C(C[C@H]1NCCC[C@@H]1O)Cn1cnc2ccccc2c1=O [FF, febrifugine]
translation of NoPro polypeptide [1]: had no effect on the translation of NoPro
translation of ProPro polypeptide [1]: prevented translation of ProPro
rescue of translation inhibition by added purified EPRS ([1]; 80 ng or 0.5 μg EPRS): rescued HF/FF-inhibition of protein translation
rescue of translation inhibition by added amino acids ([1]; excess amino acids (1-2 mM)): only proline could restore translation
translation of luciferase RNA in RRL [1]: inhibited the translation of luciferase RNA
reversal of GCN2 phosphorylation by cognate amino acid [2]: abrogated by the addition of 2 mM proline
GCN2 phosphorylation in fibroblasts [2]: Stimulation of GCN2 phosphorylation

SMILES: N[C@H](CO)Cc1c[nH]c2ccccc12 [L-tryptophanol]
IL-17 production / Th17 differentiation [3]: impaired IL-17 production
IL-17 production / Th17 differentiation ([3]; listed as tryptophanol): inhibited Th17 differentiation
Th17 differentiation ([3]; 1 mM Tryptophanol): inhibits Th17 differentiation

SMILES: CC(C)(C)OC(=O)N1CCC[C@H](O)[C@H]1CC(=O)Cn1cnc2cc(Br)c(Cl)cc2c1=O [MAZ1310]
translation of luciferase RNA in RRL [1]: no activity
activity in cell-based assays [4]: lack activity

translation of luciferase RNA in RRL [1]: no activity
SMILES: CC(=O)N1CCC[C@H](O)[C@H]1CC(=O)Cn1cnc2cc(Br)c(Cl)cc2c1=O [MAZ1442]
activity in cell-based assays [4]: lack activity

SMILES: NC(=O)c1ccc(-c2nc(-c3ccc4c(c3)OCO4)c(-c3ccccn3)[nH]2)cc1 [SB-431542]
TGFβ-induced Smad phosphorylation and other lymphocyte responses to TGFβ [5]: abrogated all responses to TGFβ

SMILES: C[C@@H]1C[C@H](C)C[C@H](C)[C@@H](O)CC(=O)O[C@H]([C@@H]2CCC[C@H]2C(=O)O)C/C=C/C=C(/C#N)[C@H](O)[C@@H](C)C1 [borrelidin]
Th17 cell differentiation ([3]; 6 nM (3 ng/mL) borrelidin): Selectively Inhibits Th17 Differentiation; also recorded: inhibited Th17 cell differentiation
reversal of Th17 inhibition by threonine [3]: rescued by its cognate amino acid
reversal of Th17 inhibition by threonine ([3]; listed as Borrelidin): reversed by the addition of threonine
differentiation of Th1, Th2, or iTreg cells [6]: without perturbing the differentiation of Th1, Th2, or iTreg cells
reversal of GCN2 phosphorylation by cognate amino acid [2]: prevented by addition of an excess of its cognate amino acid threonine
GCN2 phosphorylation in fibroblasts [2]: stimulate GCN2 phosphorylation
production of collagen protein [7]: inhibited by borrelidin-treatment and rescued by the addition of threonine
